The numbers were not newly measured in patent publication US5843891A, “Pharmaceutical acceptable compositions containing an alcohol and a hydrophobic drug” (priority 1993, dated 1998), which cites them from elsewhere.

The structures appear in SMILES notation.

For this data set the following is noted: in water at 20° C.
Turning to `CCO` [ethyl alcohol], the solubility in water result was “infinitely soluble”.

For `CCCCCCO` [Example 1-hexyl, 1-hexyl], the solubility in water is given as 0.6 g per 100 g. In the case of `CCCCCCCCO` [1-octyl alcohol], the solubility in water is 0.05 g per 100 g. As to `CCCCCCCCCCO` [1-decyl alcohol], the solubility in water entry is on record as “essentially insoluble”.
